Data from patent US20100035822A1, “PROLINE-RICH PEPTIDES, PHARMACEUTICAL COMPOSITION, USE OF ONE OR MORE PEPTIDES AND METHOD OF TREATMENT” (priority 2006, published 2010).
Entries after “also recorded” stand apart in the source; their conditions may differ.

Columns and labels:
[1] = system: spontaneously hypertensive rats (SHR); assay: Anti-hypertensive action on SHR anaesthetized with pentobarbitone; assay type: in vivo, rat
Description: Adult male SHR, weighing between 250 and 350 g, were used. Material and methods described in Example 12 were employed, except for those described below.
1) Five SHR per group were anaesthetized intraperitoneally with 60 mg/Kg body weight with sodium pentobarbitone. Mean arterial blood pressure and heart rate were continuously calculated from arterial blood pressure pulses (PAP). Cardiovascular parameters were monitored during 30 minutes before i.v. administration of peptides SEQ ID NO 1, or SEQ ID NO 4, or SEQ ID NO 8 (71 nmoles/Kg body weight), or captopril (10 μmoles/Kg body weight), in a final volume of 0.5 mL 0.9% NaCl solution. The control was the vehicle (0.9% NaCl). PAM and heart rate were continuously monitored up to 180 minutes after administration of the anti-hypertensive compound.
2) The day before measurements, the SHR underwent surgery for catheter implantation into the femoral artery and vein. […] Cardiovascular parameters of the rats were monitored for 60 minutes before i.v. administration of peptides SEQ ID NO 1, or SEQ ID NO 4, or SEQ ID NO 8 (71 nmoles/Kg body weight), or captopril (10 μmoles/Kg body weight), in a final volume of 0.5 mL 0.9% NaCl solution. […] MAP and heart rate were continuously monitored up to 360 minutes after administration of the peptides.
Results, presented in FIG. 14B, are expressed as mean±SEM. […]

[2] = system: SK-N-AS cells (human neuroblastoma); assay: Free intracellular Ca2+ concentration in SK-N-AS cells (fluo-3 AM, confocal microscopy); assay type: cell-based; settings: 1 μM
Description: In these experiments the variation in free intracellular calcium [Ca^2+]i concentration was measured in SK-N-AS cells (human neuroblastoma, ATCC No. CRL-2137) after addition of 1 μmolar of peptides SEQ ID NO 1 or SEQ ID NO 8, or of 1 μmolar captopril. Cells were kept in DMEM (Dulbecco Modified Medium), supplemented with 10% fetal bovine serum (FBS) and 1% non-essential amino acids, at 5% CO2 atmosphere, at 37° C., and 95% relative humidity. Cells were treated with trypsin, and replicated at adequate cell concentrations.
Measurements of variation in the concentration of free [Ca^2+]i were performed with a confocal microscope LSM 510 (Zeiss, Jena, Germany), as described by Martins et al., (Martins et al., Neuronal differentiation of P19 embryonal carcinoma cells modulates kinin B2 receptor gene expression and function. J. Biol. Chem. 280: 19576-19586, 2005). Approximately 5×10^4 SK-N-AS cells were plated on 60 mm plates 24 hours prior to measurement, and then treated with 4 μM fluo-3 AM (Invitrogen Corporation) in 0.5% DMSO and 0.1% non-ionic surfactant pluronic acid F-127 for 30 minutes at 37° C. Cells were washed with DMEM containing 10% FBS, and transferred to defined medium (5 μg/ml insulin, 30 μg/ml transferrin, 20 μM ethanolamine, 30 nM sodium selenite, 1 μM sodium pyruvate, 1% non-essential amino acids, 1 mM glutamine, 100 μg/ml penicillin, 100 μg/ml streptomycin, 10 mM HEPES pH 7.4 in DMEM). The fluorescent fluo-3 AM was excited at 488 nm, and the fluorescence measured at 526 nm.
Variations in the [Ca^2+]i were measured in non-stimulated cells, and in cells stimulated with peptides SEQ ID NO 1 or SEQ ID NO 8, or with captopril (Sigma Aldrich). Increase of fluorescence was monitored for 2 minutes, and images were acquired in 256×256 pixels every second. At the end of each experiment, 5 μM ionophore (4-Br-A23187) were added, followed by 10 mM EGTA, or 20 μM digitonin to determine maximum and minimum fluorescence, Fmax and Fmin respectively, as described by Grynkiewicz et al., (1985).
Intracellular calcium concentrations [Ca^2+]i, related to fluorescence (F) values obtained after addition of peptides SEQ ID NO 1 or SEQ ID NO 8, were calculated with the equation: [Ca^2+]=Kd(F−Fmin)/(Fmax−F), assuming Kd=450 nM for fluo-3 AM (Hallett et al., 1990).

[3] = system: spontaneously hypertensive rats (SHR); assay: Anti-hypertensive effect on mean arterial blood pressure of SHR; assay type: in vivo, rat
Description: In vivo studies on the effect of peptides of the present invention were performed on adult male spontaneously hypertensive rats, and normotensive Wistar rats (Rattus novergicus) weighing 250 to 350 g. Animals had free access to chow (Nuvilab) and water, and were submitted to a light-dark cycle of 12 hours each. Procedures involving animals and their care were conducted according to Giles [Giles A. R. Guidelines for the use of animals in biomedical research. Thromb. Haemost. 58: 1078-1084, 1987]. […]
The cardiovascular parameters (pulse arterial pressure (PAP), mean arterial pressure (MAP), and heart rate (HR)) were monitored by a solid-state strain gauge transducer connected to a computer through a data acquisition system (MP 100; BIOPAC Systems, Inc, Santa Barbara, Calif., USA). The PAP, MAP and HR were continuously presented in different monitor channels and recorded in the computer hard disk for late analysis.
Before drug administration, cardiovascular parameters of the rats were monitored for 40 minutes. […] Arterial blood pressure and heart frequency were continuously monitored for 360 minutes.
Results were expressed as the mean variation of MAP±standard deviation. […]

| Molecule | effect of pentobarbitone on the anti-hypertensive action [1] | change of intracellular [Ca2+]i [2] | molar dose needed for anti-hypertensive activity relative to the peptides ([3]; e.g. 10 μmoles/Kg, the dose that inhibits ACE in vivo) | dose of optimum anti-hypertensive activity ([3]; effect is reduced at higher and at lower doses) |
| --- | --- | --- | --- | --- |
| CC(CS)C(=O)N1CCC[C@@H]1C(=O)O (stereo partly drawn) [captopril, D-3-mercapto-2-methyl-1-oxopropyl-L-proline, reference compound] | not blocked by pentobarbitone | no change; also recorded: did not cause any change | approximately 1000 fold | – |
| <ENWPHPQIPP [SEQ ID NO 8] | susceptible to the action of pentobarbitone | Increase | – | ~71 nmoles/Kg of body weight |
